Measured values published in PMC3189933, “Acylpeptide Hydrolase Inhibition as Targeted Strategy to Induce Proteasomal Down-Regulation” (PLoS ONE, 2011).
Where a SMILES comes first, the peptide text is derived from it. Where no end group is shown, it is not given here. The star is where a group is joined. Cbz = O=C(OCc1ccccc1)*

What was measured:
[1] = system: polyubiquitinylated proteins in Caco-2 cells; experiment: Protein ubiquitinylation in Caco-2 cells (immunoblot); assay type: cell-based, human; details: 48 h, 200 µM SsCEI 4 or t10c12-CLA, mixture, 100 µM ebelactone, 10 µM MG132, species 66 kDa to 160 kDa
Text: The following antibodies were used: anti-APEH antibody (sc-102311; Santa Cruz Biotechnology); anti-NF-κB/p65 antibody (Thermo Scientific); anti-p21Waf1 antibody (Exbio); pan Ab-5 anti-actin antibody (clone ACTN05, Thermo Scientific); and monoclonal antibodies against polyubiquitinylated proteins conjugated with horseradish peroxidase (FK2H, Enzo, Life Science). The ΔF508CFTR-3HA protein was detected with an anti HA monoclonal antibody (Covance).

APEH in Caco-2 cells = experiment: APEH activity in Caco-2 cells; details: differentiated Caco-2 cells
Method: Porcine liver APEH activity was measured spectrophotometrically using the chromogenic substrate acetyl-Ala-pNA (Bachem). The reaction mixture (1 mL) containing pure APEH (38 ng) or an appropriate amount of cell extract in 50 mM Tris-HCl buffer pH 7.5 (Tris Buffer), was preincubated at 37°C for 2 min. Then, 1 mM acetyl-Ala-pNA was added and the release of p-nitroanilide (ε410 = 8800 M-1 cm-1) was measured by recording the absorbance increase at 410 nm on a Cary 100 Scan (Varian) UV/Vis spectrophotometer, equipped with a thermostated cuvette compartment. APEH activity was expressed in IU. The APEHSs activity was measured using acetyl-Leu-pNA (0.1 mM) (Sigma) as substrate. The reaction mixture (1 mL) containing the appropriate amount of enzyme in 25 mM Tris-HCl buffer pH 7.5, was preincubated at 80°C for 2 min. Then, 0.1 mM acetyl-Leu-pNA was added and the release of p-nitroanilide was measured, following the standard assay procedure described above.
Caco-2 cells (ATCC) were cultivated in DMEM supplemented with 10% FBS, 1 mM glutamine and 100 units/mL penicillin-streptomycin at 37°C in a humidified 5% CO2 atmosphere. The cells were studied between passages 12 and 22. The cells were split using trypsin-EDTA solution and plated in 6-well plates at a density of 8×10^4 cells/mL and the medium was replaced every 2–3 days. Under these conditions, the cells reached visual confluence after 7 days and the differentiated stage two weeks later. The differentiated cells were incubated for 48 h with the different substances.
Following the treatments, the BHK and Caco-2 cells were washed three times with ice cold phosphate-buffered saline and collected immediately at 4°C in lysis buffer (1% Triton X-100, 0.1% SDS, 20 mM Tris-HCl, pH 8.0, 150 mM NaCl, 0.5% sodium deoxycholate and complete protease inhibitors [Roche]). The lysates were centrifuged at 10,000×g for 15 min at 4°C. The protein concentrations in the clear supernatants were determined (BCA protein assay reagent kit; Pierce) before their use in enzymatic assays or SDS–PAGE.

porcine APEH [2] = molecular target: T1, porcine APEH (Sus scrofa, UniProt P19205); experiment: Inhibition of porcine liver APEH, Ac-Ala-pNA substrate; assay type: biochemical; details: Ac-Ala-pNA, pre-incubated 30 min at 37°C
T1 construct: mammalian APEHs purified from both porcine liver and human colon carcinoma intestinal cells (Caco-2); purchased Takara; host or cells: porcine liver
T1 sequence (P19205 1-732): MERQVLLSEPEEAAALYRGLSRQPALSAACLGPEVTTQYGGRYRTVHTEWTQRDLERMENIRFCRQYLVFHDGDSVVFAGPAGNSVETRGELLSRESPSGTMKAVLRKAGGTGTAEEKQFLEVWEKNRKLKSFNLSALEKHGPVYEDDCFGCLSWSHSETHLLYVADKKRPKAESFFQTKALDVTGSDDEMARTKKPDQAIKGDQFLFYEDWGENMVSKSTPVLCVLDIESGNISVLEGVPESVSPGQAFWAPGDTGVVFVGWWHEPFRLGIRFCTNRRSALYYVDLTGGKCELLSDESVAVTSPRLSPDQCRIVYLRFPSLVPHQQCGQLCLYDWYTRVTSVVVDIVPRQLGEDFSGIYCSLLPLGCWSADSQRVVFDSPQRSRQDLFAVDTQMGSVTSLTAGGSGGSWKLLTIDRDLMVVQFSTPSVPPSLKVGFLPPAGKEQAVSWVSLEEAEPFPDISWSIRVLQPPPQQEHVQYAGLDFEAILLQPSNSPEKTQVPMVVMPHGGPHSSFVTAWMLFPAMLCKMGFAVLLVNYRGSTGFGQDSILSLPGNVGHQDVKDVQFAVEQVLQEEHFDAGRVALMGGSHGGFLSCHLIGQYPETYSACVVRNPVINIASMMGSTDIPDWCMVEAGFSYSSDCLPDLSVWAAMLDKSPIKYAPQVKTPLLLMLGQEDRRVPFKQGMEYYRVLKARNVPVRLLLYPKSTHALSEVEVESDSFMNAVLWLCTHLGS
Method: (§1) APEH activity was expressed in IU.
(§2) Protease inhibitor activities of the SsCEI peptides and the CLA isomers were carried out using a fixed amount of APEH or partially purified proteasome (3–5 nM and 0.12 mg/mL, respectively), and increasing the SsCEI and CLA isomer concentrations. Mixtures were pre-incubated for 30 min at 37°C before the addition of the substrate, and the enzymatic activities were followed as described above. Protease inhibitor activities of the SsCEI peptides and the CLA isomers were determined towards APEHSs. The protease and increasing concentrations of the inhibitors were mixed and preincubated for 30 min at 80°C before the addition of the specific substrate. The residual enzymatic activity was determined using the assay procedure described above.
(§3) All data were obtained from triplicate analyses of three different preparations. Data were presented as means ±S.D. Statistical analysis and IC50 values were calculated with the SigmaPlot 10.0 software through a non-linear curve-fitting method and using a simple binding isotherm equation. Groups were compared by Student's t test, and P<0.05 was considered as significant.

APEHSs = experiment: Inhibition of S. solfataricus APEH (APEHSs), Ac-Leu-pNA substrate; assay type: biochemical, Sulfolobus solfataricus; details: increasing inhibitor concentrations, Ac-Leu-pNA, pre-incubated 30 min at 80°C
Method: as §1, §2, §3

Caco-2 cells = experiment: LDH release cytotoxicity assay in Caco-2 cells; details: 48 h; for toxicity (LDH release) compared with MG132: 200 µM SsCEI 4 or t10c12-CLA, 100 µM ebelactone, MG132 10 µM
Method: The release of LDH was used as the marker for cell toxicity [48]. The culture supernatants were sampled at the end of the incubations and centrifuged (4,000×g, 5 min, and 4°C). Aliquots of the clear supernatant (10 µL) were incubated with 190 µL reaction buffer (200 mM Tris/HCl, pH 8.0, 0.7 mM p-iodonitrotetrazolium violet, 50 mM L-lactic acid, 0.3 mM phenazine methoxysulphate, 0.4 mM NAD,) for 30 min at 37°C. Absorbance was measured at 490 nm and the results were expressed as percentages of total LDH release from control cultures treated with 1% (w/v) Triton X-100 and calculated as: [(experimental value - blank value)/(total lysis -blank value)−100].

[3] = Enzymatic stability in 10% FBS; assay type: in vitro ADME; details: method as ref 19, data not shown
human APEH = molecular target: T2, human APEH (Homo sapiens, UniProt P13798); experiment: Inhibition of human APEH purified from Caco-2 cells; assay type: biochemical; details: human APEH from Caco-2 cells, Ac-Ala-pNA; data not shown
T2 construct: Partial purification of human APEH and proteasome was carried out from protein extracts of Caco-2 cell; endogenous in cells; host or cells: Caco-2
T2 sequence (P13798 1-732): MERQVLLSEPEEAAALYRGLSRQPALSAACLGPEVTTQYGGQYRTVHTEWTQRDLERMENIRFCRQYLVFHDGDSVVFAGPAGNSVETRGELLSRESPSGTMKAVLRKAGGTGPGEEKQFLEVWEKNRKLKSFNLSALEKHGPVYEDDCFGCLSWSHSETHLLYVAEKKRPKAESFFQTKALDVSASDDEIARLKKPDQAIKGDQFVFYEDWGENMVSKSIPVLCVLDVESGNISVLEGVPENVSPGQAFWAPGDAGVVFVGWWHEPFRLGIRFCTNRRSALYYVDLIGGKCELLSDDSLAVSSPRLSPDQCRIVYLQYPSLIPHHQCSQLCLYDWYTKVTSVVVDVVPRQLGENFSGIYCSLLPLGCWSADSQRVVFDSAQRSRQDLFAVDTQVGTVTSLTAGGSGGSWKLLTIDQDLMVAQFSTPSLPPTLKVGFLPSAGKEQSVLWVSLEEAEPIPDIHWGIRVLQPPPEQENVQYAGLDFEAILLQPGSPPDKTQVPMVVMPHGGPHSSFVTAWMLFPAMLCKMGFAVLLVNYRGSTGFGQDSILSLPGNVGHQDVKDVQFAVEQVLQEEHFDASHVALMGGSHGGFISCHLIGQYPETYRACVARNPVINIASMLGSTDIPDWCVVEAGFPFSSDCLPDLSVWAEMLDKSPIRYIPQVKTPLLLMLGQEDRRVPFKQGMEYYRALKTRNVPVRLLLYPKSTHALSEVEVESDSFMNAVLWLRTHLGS
Method: APEH from Sulfolobus solfataricus was purified as previously reported. Partial purification of human APEH and proteasome was carried out from protein extracts of Caco-2 cell. Briefly, protein extracts (500 µg) were fractionated by gel filtration chromatography on a Superdex 200 PC 3.2/30 column connected to a SMART System (Pharmacia) equilibrated in buffer 50 mM Tris-HCl, pH 7.5, 100 mM NaCl, at 0.1 mL/min. The eluted fractions were assayed using the specific substrates for APEH and the proteasome. The active fractions were collected and used for further analysis.
as §1, §2

BHK cells = experiment: Cytotoxicity in BHK cells; assay type: cell-based, Baby Hamster; details: 100 µM, 24 h or 48 h; data not shown
Method: The cells were plated in 12-well plates, to a confluence of 60% for the 24-h incubations, and 40% for 48-h exposure to PIs. These treatments were initiated 24-h after the plating of the cells. Phase-contrast images of the cells were taken just before the lysis of the cells for protein analysis, using a Lica DM6000 inverted microscope.

porcine APEH [4] = molecular target: T1, porcine APEH; experiment: RP-HPLC analysis of SsCEI 4 incubated with the target enzyme; assay type: in vitro ADME; details: 50 mM Tris pH 7.5, 37°C, up to 2 h, RP-HPLC C18, UV, printed 4 µM SsCEI 4 and 100 µM APEH
Method: The experiments were conducted at 37°C in 50 mM Tris buffer, pH 7.5. Solutions of SsCEI 4 and porcine APEH were incubated for up to 2 h at optimal concentrations (4 µM SsCEI 4 and 100 µM APEH) to guarantee a high degree of enzymatic inhibition. At specific time intervals, 195 µL aliquots were taken, and the reaction was stopped by addition of 5 µL TFA. The samples were then analysed directly by reverse-phase HPLC (Dionex BioLC) on a μBondapak C18 column (3.9×300 mm, Waters), eluted with a linear gradient (0–60% acetonitrile in 0.1% TFA) at a flow rate of 1 ml/min. Control peptide samples were incubated in the absence of the purified enzymes and run in parallel.

porcine APEH [5] = molecular target: T1, porcine APEH; experiment: Time-dependent inhibition of APEH; assay type: biochemical; details: pre-incubation at least 20 min at 37°C, then diluted 1:5 into assay mixture with substrate
Method: The time-dependent inhibition of SsCEI 4 and t10c12-CLA towards APEH was assessed. Mixtures containing appropriate amounts of each inhibitor and of APEH were pre-incubated for 20 min at 37°C; they were then diluted (1∶5) into the standard assay mixture, which contained the substrate only. The enzymatic activity was followed as described above. Control samples were prepared by pre-incubating the same amounts of APEH without the inhibitors and then diluted in the standard assay mixture.

porcine APEH [6] = molecular target: T1, porcine APEH; experiment: APEH inhibition in a reaction mixture containing the entire set of proteases; assay type: biochemical; details: mixture with trypsin, α-chymotrypsin, elastase, carboxypeptidase Y, subtilisin, thrombin; data not shown
bovine α-chymotrypsin = bovine α-chymotrypsin (Bos taurus, UniProt P00766); experiment: Serine protease selectivity panel: α-chymotrypsin; assay type: biochemical; details: increasing peptide concentrations, hyperbolic fit (Figure S3); read-out: IC50 towards bovine α-chymotrypsin
Thermal CD spectroscopy = assay type: physicochemical; details: CD 37°C to 77°C in 10°C steps, 5 mM Tris–HCl pH 7.5
Method: CD spectra were obtained on a Jasco J-715 spectropolarimeter with 400 µL of 8.0×10^-7 M protein in 5 mM Tris–HCl pH 7.5. Hellman quartz cells of 0.1-cm-path length were used in the far UV (190–250 nm). The temperature of the sample cell was regulated by a PTC-348 WI thermostat and thermal CD was performed from 250 to 195 nm by raising the cell temperature from 37°C to 77°C. The thermal CD spectra were signal-averaged by combining three scans and the baseline was corrected by subtracting a buffer spectrum. The samples were then cooled back to 37°C to monitor the final folding of the peptides.

[7] = Gel filtration (size-exclusion) analysis of oligomerization; assay type: physicochemical; details: 100 µM peptide
Method: Gel filtration chromatography was performed on a BioSep SEC-S2000 column equilibrated with 50 mM phosphate buffer pH 6.8, at a flow rate of 1.0 mL/min. A standard curve was built using a set of synthetic peptides with molecular weights between 1.500 amu and 2.500 amu. For this purpose, peptide aliquots were injected onto the column and a plot of KD versus log10 molecular weights (MW) was obtained, where KD = (Ve-Vo)/(VT-Vo), Ve is the elution volume of the sample, and VT and Vo are the total and void volumes of the column, respectively.

[8] = Stability in aqueous solution; assay type: physicochemical; details: at the concentrations required for CD analyses

CC(C)C[C@@H](C=O)NC(=O)[C@H](CC(C)C)NC(=O)[C@H](CC(C)C)NC(=O)OCc1ccccc1 [MG132] (Cbz-Leu-Leu-Leu-aldehyde)
polyubiquitin conjugates in cell extract [1]: presence of high-molecular-mass immunoreactive species
effect on APEH activity in Caco-2 cells (APEH in Caco-2 cells; MG132 10 µM, 48 h): no detectable effects

CCCCCC/C=C/C=C\CCCCCCCC(=O)O [c9t11-CLA, cis9-trans11 CLA]
effect on porcine APEH activity (porcine APEH [2]): ineffective
effect on APEHSs activity (APEHSs): no significant modulatory effect

CC[C@@H](C)[C@@H](O)[C@H](C)C(=O)[C@H](C)/C=C(\C)C[C@H](C)[C@@H]1OC(=O)[C@H]1CC [ebelactone]
toxicity (LDH release) compared with MG132 (Caco-2 cells): significantly lower than that observed in culture incubated with MG132
polyubiquitin conjugates in cell extract [1]: presence of high-molecular-mass immunoreactive species

TILAEIKNINAD-NH2 [SsCEI 4]
enzymatic stability in 10% FBS [3]: completely stable for at least one week
toxicity (LDH release) compared with MG132 (Caco-2 cells): significantly lower than that observed in culture incubated with MG132
cytotoxic effect (LDH activity levels) (Caco-2 cells; up to highest concentration 200 µM): not associated with any cytotoxic effect
IC50 towards human APEH relative to porcine APEH (human APEH): Comparable
decrease of APEH activity in Caco-2 cells (APEH in Caco-2 cells; 200 µM, 48 h (maximum effect)): 70%
cytotoxic effects in BHK cells (BHK cells): without any cytotoxic effects
stability of peptide incubated with APEH (degradation / adducts) (porcine APEH [4]): neither peptide degradation nor covalent binding with APEH occurred
inhibition of APEH after pre-incubation with the enzyme (porcine APEH [5]): 100%
inhibition efficiency and Ki towards APEH in presence of the entire protease set (porcine APEH [6]): comparable to those measured in the presence of the APEH alone

TILLEIKNINAD-NH2 [SsCEI 2]
IC50 (bovine α-chymotrypsin): 21.9 ± 6.4 µM
IC50 towards human APEH relative to porcine APEH (human APEH): Comparable
structural stability with temperature (CD) (Thermal CD spectroscopy): considerable structural stability

YAIDTILA EIKNINAD [SsCEI 3]
Measured mass value (apparent MW by gel filtration) ([7]; BioSep SEC-S2000, 50 mM phosphate pH 6.8, Da±SD, three independent determinations): 2012±150 Da
oligomerization state ([7]; size-exclusion chromatography): essentially monomers
effect on APEHSs activity (APEHSs): no detectable decrease
structural stability with temperature (CD) (Thermal CD spectroscopy): considerable structural stability

YAIDTILLEIKNINAD-NH2 [SsCEI 1]
stability in aqueous solution [8]: poor stability in aqueous solution
